In ChEMBL document CHEMBL1944624, “Synthesis and antimalarial and antituberculosis activities of a series of natural and unnatural 4-methoxy-6-styryl-pyran-2-ones, dihydro analogues and photo-dimers” (Bioorg Med Chem, 2012):
In brackets after ≈: the same amount, converted by molar mass.

Assays:
Leishmania donovani [1] = experiment: Antiprotozoal activity against Leishmania donovani MHOM/ET/67/L82 axenic amastigotes after 72 hrs by alamar blue assay; assay type: functional, organism-based; conditions: MHOM/ET/67/L82, 72 h
[2] = Selectivity index, ratio of IC50 for erythrocytic stages chloroquine and pyrimethamine-resistant Plasmodium falciparum K1 to IC50 for rat L6 myoblasts; set-up: reference not given here
Plasmodium falciparum [3] = experiment: microbe, parasite or virus in culture; assay type: functional, organism-based; conditions: K1
Description: Antiprotozoal activity against erythrocytic stages chloroquine- and pyrimethamine-resistant Plasmodium falciparum K1 assessed as inhibition of [3H]hypoxanthine incorporation pre-incubated for 48 hrs prior [3H]hypoxanthine addition measured after 24 hrs by liquid scintillation counting

[4] = system: Trypanosoma brucei rhodesiense; experiment: Antiprotozoal activity against Trypanosoma brucei rhodesiense STIB900 trypomastigotes after 72 hrs by alamar blue assay; assay type: functional, organism-based; conditions: STIB900, 72 h
L6 = experiment: Cytotoxicity against rat L6 myoblasts after 72 hrs by alamar blue assay; assay type: cell-based; conditions: L6, 72 h
Trypanosoma cruzi = experiment: Antiprotozoal activity against Trypanosoma cruzi Tulahuen C2C4 amastigotes infected in rat L6 myoblasts after 96 hrs by CPRG/Nonidet-based spectrophotometry; assay type: functional, organism-based; conditions: Tulahuen C2C4, L6, 96 h
[5] = system: Mycobacterium tuberculosis; experiment: Antituberculosis activity against Mycobacterium tuberculosis; assay type: functional
Leishmania donovani [6] = experiment: Antiprotozoal activity against Leishmania donovani; assay type: functional, organism-based
Plasmodium falciparum [7] = experiment: Antiprotozoal activity against chloroquine resistant Plasmodium falciparum K1; assay type: functional, organism-based
[8] = system: Trypanosoma brucei rhodesiense; experiment: Antiprotozoal activity against Trypanosoma brucei rhodesiense; assay type: functional, organism-based
Plasmodium falciparum [9] = experiment: Antiprotozoal activity against Plasmodium falciparum; assay type: functional, organism-based

Structure (SMILES) | IC50 (Leishmania donovani [1]) | Ratio IC50 [2] | IC50 (Plasmodium falciparum [3]) | IC50 [4] | IC50 (L6) | IC50 (Trypanosoma cruzi) | MIC [5] | IC50 (Leishmania donovani [6]) | IC50 (Plasmodium falciparum [7]) | IC50 [8] | IC50 (Plasmodium falciparum [9])
CCCCCCCCCCCCCCCCOP(=O)([O-])OCC[N+](C)(C)C [MILTEFOSINE] | 0.5 µM |  |  |  |  |  |  |  |  |  | 
COC1=CC(=O)O[C@]2(/C=C/c3cccc(Oc4ccc(C(C)(C)C)cc4)c3)[C@H]1[C@H](c1cccc(Oc3ccc(C(C)(C)C)cc3)c1)[C@H]2c1cc(OC)cc(=O)o1 (racemic) | 66 µM | >27 | 4.4 µM | > 120 µM | > 120 µM | > 120 µM |  |  |  |  | 
COc1cc(CCc2ccc3c(c2)OCO3)oc(=O)c1 | > 330 µM |  | > 18 µM | > 330 µM | 150 µM | > 330 µM |  |  |  |  | 
COc1cc(/C=C/C=C/c2ccc(N(C)C)cc2)oc(=O)c1 | > 300 µM | 4 | 7.2 µM | 290 µM | 26 µM | > 300 µM |  |  |  |  | 
COc1cc(/C=C/c2ccc([N+](=O)[O-])cc2)oc(=O)c1 | 49 µM | 32 | 6 µM | 38 µM | 190 µM | 240 µM |  |  |  |  | 
COc1cc([C@@H]2c3cc4c(cc3[C@H](O)[C@H]3COC(=O)[C@H]23)OCO4)cc(OC)c1OC [PODOFILOX] |  |  |  |  | 0.01 µM |  |  |  |  |  | 
COc1cc(CCc2ccc(CCc3cc(OC)cc(=O)o3)cc2)oc(=O)c1 | > 240 µM | 14 | 3.6 µM | 200 µM | 50 µM | > 240 µM |  |  |  |  | 
COc1cc(/C=C/c2cccc([N+](=O)[O-])c2)oc(=O)c1 | 270 µM | 15 | 12 µM | 290 µM | 180 µM | > 330 µM |  |  |  |  | 
O=C(Cn1ccnc1[N+](=O)[O-])NCc1ccccc1 [BENZNIDAZOLE] |  |  |  |  |  | 1.4 µM |  |  |  |  | 
COc1cc(/C=C/c2cccc(Oc3ccc(C(C)(C)C)cc3)c2)oc(=O)c1 | 25 µM | 10 | 6.3 µM | 34 µM | 64 µM | 40 µM |  |  |  |  | 
COC1=CC(=O)O[C@]2(/C=C/c3ccccc3)[C@H]1[C@H](c1ccccc1)[C@H]2c1cc(OC)cc(=O)o1 (relative stereo) | 27 µM | >28 | 7.1 µM | 13 µM | > 200 µM | 28 µM |  |  |  |  | 
CCCCCCCC1CC(O)=C(CCCCCC)C(=O)O1 (centres undefined) [PSEUDOPYRONINE B] |  |  |  |  |  |  | 2.7 µM (≈ 0.8 µg/mL) | 4.8 µM | 48 µM | 42 µM | 
COc1cc(CCc2ccc3ccccc3c2)oc(=O)c1 | 42 µM | 6 | 16 µM | 72 µM | 91 µM | 65 µM |  |  |  |  | 
COc1cc(/C=C/c2ccc(OC)c(OC)c2)oc(=O)c1 | 270 µM | 54 | 3 µM | 31 µM | 160 µM | 170 µM |  |  |  |  | 
CCCCCCc1c(OC)cc(CCCCC)oc1=O |  |  |  |  |  |  | 45 µM (≈ 12.6 µg/mL) |  |  | 14 µM | 11 µM
COc1cc(/C=C/C=C/c2ccccc2)oc(=O)c1 | 220 µM | 29 | 6.7 µM | 150 µM | 190 µM | > 350 µM |  |  |  |  | 
COc1cc([C@@H]2[C@@H](c3ccccc3)[C@@H](c3ccccc3)[C@@H]2c2cc(OC)cc(=O)o2)oc(=O)c1 | 17 µM | 13 | 3.8 µM | 15 µM | 51 µM | 32 µM |  |  |  |  | 

Structure (SMILES) | IC50 (Leishmania donovani [1]) | Ratio IC50 [2] | IC50 (Plasmodium falciparum [3]) | IC50 [4] | IC50 (L6) | IC50 (Trypanosoma cruzi) | MIC [5] | IC50 (Leishmania donovani [6]) | IC50 (Plasmodium falciparum [7]) | IC50 [8] | IC50 (Plasmodium falciparum [9])
COc1cc(CCc2cccc3ccccc23)oc(=O)c1 | 55 µM |  | > 18 µM | 85 µM | 110 µM | 76 µM |  |  |  |  | 
COC1=CC(=O)O[C@]2(/C=C/c3ccc(OC)c(OC)c3)[C@H]1[C@H](c1ccc(OC)c(OC)c1)[C@H]2c1cc(OC)cc(=O)o1 (relative stereo) | 79 µM | 80 | 1.5 µM | 61 µM | 120 µM | 130 µM |  |  |  |  | 
COc1cc(/C=C/c2ccc3ccccc3c2)oc(=O)c1 | > 320 µM | 22 | 1.3 µM | 2.7 µM | 28 µM | > 320 µM |  |  |  |  | 
COc1cc(/C=C/c2ccccc2)oc(=O)c1 [DESMETHOXYYANGONIN] | 190 µM | 12 | 13 µM | 120 µM | 160 µM | 64 µM |  |  |  |  | 
COc1cc(CCc2ccc(C(C)(C)C)cc2)oc(=O)c1 | 24 µM | 9 | 11 µM | 78 µM | 95 µM | 55 µM |  |  |  |  | 
COc1cc(/C=C/c2cccc(Oc3ccccc3)c2)oc(=O)c1 | 30 µM | 3 | 4.9 µM | 8.8 µM | 13 µM | 43 µM |  |  |  |  | 
COc1cc(CCc2cccc(Oc3ccc(C(C)(C)C)cc3)c2)oc(=O)c1 | 15 µM | 7 | 7.2 µM | 65 µM | 50 µM | 36 µM |  |  |  |  | 
COc1cc(/C=C/c2ccc(/C=C/c3cc(OC)cc(=O)o3)cc2)oc(=O)c1 | > 240 µM | >28 | 8.6 µM | 119 µM | > 240 µM | > 240 µM |  |  |  |  | 
COc1cc(/C=C/c2ccc3c(c2)OCO3)oc(=O)c1 | 230 µM | 3 | 5.6 µM | 47 µM | 16 µM | 180 µM |  |  |  |  | 
COc1cc(/C=C/c2cccc3ccccc23)oc(=O)c1 | 47 µM | 24 | 4.6 µM | 18 µM | 110 µM | 34 µM |  |  |  |  | 
COc1cc(CCc2ccccc2)oc(=O)c1 [DIHYDRO-5,6-DEHYDROKAWAIN] | 190 µM |  | > 22 µM |  | 290 µM | 240 µM |  |  |  |  | 
COc1cc(=O)oc([C@H]2[C@H](c3ccc(OC)c(OC)c3)[C@H](c3cc(OC)cc(=O)o3)[C@H]2c2ccc(OC)c(OC)c2)c1 | 75 µM | 7 | 3.1 µM | 6.2 µM | 22 µM | 38 µM |  |  |  |  | 
COc1cc(/C=C/c2ccco2)oc(=O)c1 | 240 µM | 8 | 17 µM | 76 µM | 140 µM | > 410 µM |  |  |  |  | 
COc1cc(/C=C/c2ccc(C(C)(C)C)cc2)oc(=O)c1 | 20 µM | 4 | 5.3 µM | 44 µM | 24 µM | 26 µM |  |  |  |  | 
COc1cc(CCc2ccc(OC)c(OC)c2)oc(=O)c1 | 270 µM |  | > 17 µM | 200 µM | > 310 µM | > 310 µM |  |  |  |  | 
COc1cc(=O)oc([C@H]2[C@H](c3ccc4ccccc4c3)[C@H](c3cc(OC)cc(=O)o3)[C@H]2c2ccc3ccccc3c2)c1 | 10 µM | 42 | 2.3 µM | 4.9 µM | 95 µM | 90 µM |  |  |  |  | 
COC1=CC(=O)O[C@]2(/C=C/c3ccc(C(C)(C)C)cc3)[C@H]1[C@H](c1ccc(C(C)(C)C)cc1)[C@H]2c1cc(OC)cc(=O)o1 (racemic) | 4.5 µM | 76 | 1.7 µM | 21 µM | 130 µM | 71 µM |  |  |  |  | 
